From the supplement of paper PMC10307832

What was measured:
Experiment in all cases: relative viability (nuclei count vs DMSO), 5 days (fraction); higher = more cells survive
Vemurafenib + Crizotinib = compound: CCCS(=O)(=O)Nc1ccc(F)c(C(=O)c2c[nH]c3ncc(-c4ccc(Cl)cc4)cc23)c1F [Vemurafenib] + C[C@@H](Oc1cc(-c2cnn(C3CCNCC3)c2)cnc1N)c1c(Cl)ccc(F)c1Cl [Crizotinib] (partner 1 µM)
Outline: (§1)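 Cells from lung cancer lines were seeded into 1536-well plates and, one day later, dosed by pin tool. Treatments were either a single drug or a fixed dose of an anchor drug with five library-drug doses (not always all listed) in √10 steps. After 5 days, nuclei were stained in a one-step fixation (final 0.05% Triton X-100, 1% formaldehyde, 1 ug/ml Hoechst) and counted on 4× images, and relative viability is the treated-to-vehicle nuclei ratio, as the median of duplicate plates.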

Alpelisib + Tozasertib = compound: Cc1nc(NC(=O)N2CCC[C@H]2C(N)=O)sc1-c1ccnc(C(C)(C)C(F)(F)F)c1 [Alpelisib] + Cc1cc(Nc2cc(N3CCN(C)CC3)nc(Sc3ccc(NC(=O)C4CC4)cc3)n2)n[nH]1 [Tozasertib] (partner 0.1 µM)
Outline: as §1

OSI-027 + Crizotinib = compound: COc1cccc2cc(-c3nc([C@H]4CC[C@H](C(=O)O)CC4)n4ncnc(N)c34)[nH]c12 [OSI-027] + C[C@@H](Oc1cc(-c2cnn(C3CCNCC3)c2)cnc1N)c1c(Cl)ccc(F)c1Cl [Crizotinib] (partner 1 µM)
Outline: as §1

Alpelisib + Bortezomib = compound: Cc1nc(NC(=O)N2CCC[C@H]2C(N)=O)sc1-c1ccnc(C(C)(C)C(F)(F)F)c1 [Alpelisib] + CC(C)C[C@H](NC(=O)[C@H](Cc1ccccc1)NC(=O)c1cnccn1)B(O)O [Bortezomib] (partner 0.002 µM)
Outline: as §1

Cell Line	relative viability (Vemurafenib + Crizotinib; first compound 0.03162 µM)	relative viability (Vemurafenib + Crizotinib; first compound 0.1 µM)	relative viability (Vemurafenib + Crizotinib; first compound 0.3162 µM)	relative viability (Vemurafenib + Crizotinib; first compound 1 µM)	relative viability (Alpelisib + Tozasertib; first compound 0.04 µM)	relative viability (Alpelisib + Tozasertib; first compound 0.1265 µM)	relative viability (Alpelisib + Tozasertib; first compound 0.4 µM)	relative viability (Alpelisib + Tozasertib; first compound 1.265 µM)	relative viability (Alpelisib + Tozasertib; first compound 4 µM)	relative viability (OSI-027 + Crizotinib; first compound 0.01 µM)	relative viability (OSI-027 + Crizotinib; first compound 0.03162 µM)	relative viability (OSI-027 + Crizotinib; first compound 0.1 µM)	relative viability (OSI-027 + Crizotinib; first compound 1 µM)	relative viability (Alpelisib + Bortezomib; first compound 0.04 µM)	relative viability (Alpelisib + Bortezomib; first compound 0.1265 µM)	relative viability (Alpelisib + Bortezomib; first compound 0.4 µM)	relative viability (Alpelisib + Bortezomib; first compound 1.265 µM)	relative viability (Alpelisib + Bortezomib; first compound 4 µM)	relative viability (OSI-027 + Crizotinib; first compound 0.3162 µM)
NCI-H2228	0.428	0.417	0.688	0.469	0.224	0.173	0.231	0.204	0.139	0.525	0.524	0.485	0.239	0.933	0.807	0.922	0.696	0.537	
LOU-NH91	0.691	0.515		0.752	0.689	0.643	0.656	0.563	0.443	0.73	0.726	0.693	0.508	0.478	0.457	0.51	0.537	0.474	0.681
RERF-LC-KJ	0.838	0.834	0.832	0.922	0.466	0.455	0.572	0.363	0.349	0.884	0.938	0.861	0.484	1.1	1.08	1.32	1.01	0.934	0.805
EKVX	0.842		1	0.968	0.346	0.308	0.499	0.333	0.198	0.92	0.816	1.03	0.513	1.09	1.05	1.05	0.953	1.02	0.822
NCI-H441	0.705	0.684	0.743	0.616	0.629	0.537	0.693	0.418	0.366	0.679	0.613	0.633	0.338	0.631	0.45	0.531	0.329	0.385	0.604
CAL-12T	0.759	0.644	0.592	0.689	0.295	0.308	0.246	0.212	0.317	0.567	0.568	0.62	0.487	1.08		0.952		0.718	0.718
201T	0.997	0.993	1.09	1.02	0.934	0.918	0.917	0.838	0.8	1.05	1.11	1.08	0.847	1.1	1.08	1.18	1.08	1.09	1.03
SK-LU-1	0.855	0.905	0.664	0.72	0.347	0.289	0.372	0.256	0.216	0.937	0.789	0.644	0.358	1.36	0.723	1.01	0.805	0.934	0.531
LC-2-ad	0.315	0.461	0.377	0.392	0.377	0.372	0.431	0.307	0.348	0.49	0.483	0.458	0.384	1.05	1.01	1.09	0.955	0.844	0.474
LCLC-103H	1.06	1.06	1.01	1.09	0.462	0.448	0.482	0.357	0.37	1.07	1.03	1.18	1.01	0.819	0.964	1.03	1.05	0.831	0.948
NCI-H650	0.705	0.72	0.418	0.581	0.705	0.758	0.798	0.54	0.573	0.733	0.583	0.582	0.336	0.728	0.563	0.881	0.573	0.58	0.469
